Source: patent US10294202B2, “Pyrrolidinones as herbicides” (FMC Corporation, priority 2013, dated 2019)

Tests used:
barnyardgrass = assay: Test A pre-/postemergence herbicide test; type: in vivo, Echinochloa crus-galli
Outline: (§1)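 Approximately 10 days after treatment in the greenhouse, plants were compared with untreated controls and given a 0–100 visual injury rating. Applications: preemergence directed soil spray; postemergence on 2–10 cm plants at the one- to two-leaf stage.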

giant foxtail = assay: Test A pre-/postemergence herbicide test; type: in vivo, Setaria faberii
Outline: as §1

ducksalad = assay: Test B flooded paddy test; type: in vivo, Heteranthera limosa; settings: 1000 g ai/ha, Flood; scale of 0 to 100 where 0 is no effect and 100 is complete control
Outline: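 Treatment was made at the 2-leaf stage by dosing the standing floodwater, kept 3 cm above soil level for the whole test. Greenhouse exposure lasted 13 to 15 days. Response is a visual percent rating relative to controls, where a dash indicates no test result.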

ryegrass, Italian = assay: Test C pre-/postemergence herbicide test; type: in vivo, Lolium multiflorum
Outline: (§2)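 Plants grown and held in a greenhouse for 13 to 15 days post-spray, then rated 0–100 by visual comparison with controls. Pre treatments targeted seeds in loam and sand; post treatments targeted 1- to 4-leaf plants in peat-based potting medium.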

corn = assay: Test C pre-/postemergence herbicide test; type: in vivo, Zea mays
Outline: as §2

crabgrass, large = assay: Test C pre-/postemergence herbicide test; type: in vivo, Digitaria sanguinalis
Outline: as §2

johnsongrass = assay: Test C pre-/postemergence herbicide test; type: in vivo, Sorghum halepense
Outline: as §2

lambsquarters = assay: Test C pre-/postemergence herbicide test; type: in vivo, Chenopodium album
Outline: as §2

nutsedge, yellow = assay: Test C pre-/postemergence herbicide test; type: in vivo, Cyperus esculentus
Outline: as §2

pigweed = assay: Test C pre-/postemergence herbicide test; type: in vivo, Amaranthus retroflexus
Outline: as §2

soybean = assay: Test C pre-/postemergence herbicide test; type: in vivo, Glycine max
Outline: as §2

[1] = Postemergence, 125 g ai/ha, visual rating on 0 to 100 scale (0 no effect, 100 complete control), approx. 10 days
[2] = Postemergence, 500 g ai/ha, 0 to 100 scale (0 no effect, 100 complete control)
[3] = Preemergence, 125 g ai/ha, 0 to 100 scale where 0 is no effect and 100 is complete control
[4] = Preemergence, 500 g ai/ha, visual rating on 0 to 100 scale (0 no effect, 100 complete control)
[5] = Postemergence, 31 g ai/ha, scale 0 to 100 (0 no effect, 100 complete control)
[6] = Postemergence, 62 g ai/ha, scale 0 (no effect) to 100 (complete control)
[7] = Postemergence, 125 g ai/ha, scale 0 to 100 (0 no effect, 100 complete control)
[8] = Postemergence, 250 g ai/ha, scale 0 to 100 (0 no effect, 100 complete control)
[9] = Preemergence, 62 g ai/ha, scale 0 to 100 (0 no effect, 100 complete control)
[10] = Preemergence, 125 g ai/ha, scale 0 to 100
[11] = Preemergence, 31 g ai/ha, scale 0 to 100

Q: How did the “Plant response rating, Barnyardgrass” value (barnyardgrass; [1]) turn out when O=C1NCC(c2ccc(F)c(F)c2)C1C(=O)Nc1ccc(F)c(F)c1F (stereo not shown) [Compound 346] was run?
A: 80

Q: What about the “Plant response rating, Barnyardgrass” value (barnyardgrass; [2]) of the same compound?
A: 90

Q: And the “Plant response rating, Barnyardgrass” value (barnyardgrass; [3])?
A: 80

Q: What about the “Barnyardgrass plant response rating” value (barnyardgrass; [4]) of the same compound?
A: 90

Q: And the “Plant response rating, Foxtail, Giant” value (giant foxtail; [1])?
A: 80

Q: What about the “Plant response rating, Foxtail, Giant” value (giant foxtail; [2]) of the same compound?
A: 90

Q: And the “Plant response rating, Foxtail, Giant” value (giant foxtail; [3])?
A: 90

Q: What about the “Foxtail, Giant plant response rating” value (giant foxtail; [4]) of the same compound?
A: 90

Q: What about the “Plant response rating, Ducksalad” value (ducksalad) of the same compound?
A: 100

Q: And the “Plant response rating, Ryegrass, Italian” value (ryegrass, Italian; [5])?
A: 0

Q: What about the “Plant response rating, Ryegrass, Italian” value (ryegrass, Italian; [6]) of the same compound?
A: 0

Q: And the “Plant response rating, Ryegrass, Italian” value (ryegrass, Italian; [7])?
A: 0

Q: What about the “Plant response rating, Ryegrass, Italian” value (ryegrass, Italian; [8]) of the same compound?
A: 0

Q: What about the “Ryegrass, Italian plant response rating” value (ryegrass, Italian; [9]) of the same compound?
A: 10

Q: And the “Plant response rating, Ryegrass, Italian” value (ryegrass, Italian; [10])?
A: 5

Q: And the “Plant response rating, Ryegrass, Italian” value (ryegrass, Italian; [11])?
A: 0

Q: And the “Plant response rating, Corn” value (corn; [5])?
A: 0

Q: What about the “Plant response rating, Corn” value (corn; [6]) of the same compound?
A: 0

Q: And the “Plant response rating, Corn” value (corn; [7])?
A: 0

Q: And the “Plant response rating, Corn” value (corn; [8])?
A: 0

Q: And the “Corn plant response rating” value (corn; [9])?
A: 0

Q: And the “Plant response rating, Corn” value (corn; [10])?
A: 0

Q: And the “Plant response rating (scale of 0 to 100), Corn” value (corn; Preemergence, 250 g ai/ha)?
A: 5

Q: What about the “Plant response rating, Corn” value (corn; [11]) of the same compound?
A: 0

Q: What about the “Plant response rating, Crabgrass, Large” value (crabgrass, large; [5]) of the same compound?
A: 0

Q: And the “Plant response rating, Crabgrass, Large” value (crabgrass, large; [6])?
A: 25

Q: And the “Plant response rating, Crabgrass, Large” value (crabgrass, large; [7])?
A: 60

Q: What about the “Plant response rating, Crabgrass, Large” value (crabgrass, large; [8]) of the same compound?
A: 75

Q: And the “Crabgrass, Large plant response rating” value (crabgrass, large; [9])?
A: 95

Q: What about the “Plant response rating, Crabgrass, Large” value (crabgrass, large; [10]) of the same compound?
A: 98

Q: What about the “Plant response rating (scale of 0 to 100), Crabgrass, Large” value (crabgrass, large; Preemergence, 250 g ai/ha) of the same compound?
A: 100

Q: What about the “Plant response rating, Crabgrass, Large” value (crabgrass, large; [11]) of the same compound?
A: 95

Q: And the “Plant response rating, Johnsongrass” value (johnsongrass; [5])?
A: 100

Q: What about the “Plant response rating, Johnsongrass” value (johnsongrass; [6]) of the same compound?
A: 0

Q: And the “Plant response rating, Johnsongrass” value (johnsongrass; [7])?
A: 0

Q: And the “Plant response rating, Johnsongrass” value (johnsongrass; [8])?
A: 0

Q: And the “Johnsongrass plant response rating” value (johnsongrass; [9])?
A: 0

Q: And the “Plant response rating, Johnsongrass” value (johnsongrass; [10])?
A: 20

Q: What about the “Plant response rating (scale of 0 to 100), Johnsongrass” value (johnsongrass; Preemergence, 250 g ai/ha) of the same compound?
A: 60

Q: What about the “Plant response rating, Johnsongrass” value (johnsongrass; [11]) of the same compound?
A: 0

Q: What about the “Plant response rating, Lambsquarters” value (lambsquarters; [5]) of the same compound?
A: 45

Q: What about the “Plant response rating, Lambsquarters” value (lambsquarters; [6]) of the same compound?
A: 5

Q: And the “Plant response rating, Lambsquarters” value (lambsquarters; [7])?
A: 5

Q: What about the “Plant response rating, Lambsquarters” value (lambsquarters; [8]) of the same compound?
A: 65

Q: And the “Lambsquarters plant response rating” value (lambsquarters; [9])?
A: 35

Q: And the “Plant response rating, Lambsquarters” value (lambsquarters; [10])?
A: 100

Q: What about the “Plant response rating (scale of 0 to 100), Lambsquarters” value (lambsquarters; Preemergence, 250 g ai/ha) of the same compound?
A: 100

Q: And the “Plant response rating, Lambsquarters” value (lambsquarters; [11])?
A: 35

Q: And the “Plant response rating, Nutsedge, Yellow” value (nutsedge, yellow; [5])?
A: 0

Q: What about the “Plant response rating, Nutsedge, Yellow” value (nutsedge, yellow; [6]) of the same compound?
A: 0

Q: What about the “Plant response rating, Nutsedge, Yellow” value (nutsedge, yellow; [7]) of the same compound?
A: 0

Q: And the “Plant response rating, Nutsedge, Yellow” value (nutsedge, yellow; [8])?
A: 5

Q: And the “Nutsedge, Yellow plant response rating” value (nutsedge, yellow; [9])?
A: 0

Q: What about the “Plant response rating, Nutsedge, Yellow” value (nutsedge, yellow; [10]) of the same compound?
A: 0

Q: And the “Plant response rating (scale of 0 to 100), Nutsedge, Yellow” value (nutsedge, yellow; Preemergence, 250 g ai/ha)?
A: 0

Q: And the “Plant response rating, Nutsedge, Yellow” value (nutsedge, yellow; [11])?
A: 0

Q: What about the “Plant response rating, Pigweed” value (pigweed; [5]) of the same compound?
A: 5

Q: What about the “Plant response rating, Pigweed” value (pigweed; [6]) of the same compound?
A: 5

Q: What about the “Plant response rating, Pigweed” value (pigweed; [7]) of the same compound?
A: 20

Q: And the “Plant response rating, Pigweed” value (pigweed; [8])?
A: 40

Q: What about the “Pigweed plant response rating” value (pigweed; [9]) of the same compound?
A: 55

Q: And the “Plant response rating, Pigweed” value (pigweed; [10])?
A: 60

Q: And the “Plant response rating, Pigweed” value (pigweed; [11])?
A: 40

Q: What about the “Plant response rating, Soybean” value (soybean; [5]) of the same compound?
A: 0

Q: What about the “Plant response rating, Soybean” value (soybean; [6]) of the same compound?
A: 5

Q: What about the “Plant response rating, Soybean” value (soybean; [7]) of the same compound?
A: 0

Q: And the “Plant response rating, Soybean” value (soybean; [8])?
A: 5

Q: And the “Soybean plant response rating” value (soybean; [9])?
A: 0

Q: And the “Plant response rating, Soybean” value (soybean; [10])?
A: 0

Q: And the “Plant response rating, Soybean” value (soybean; [11])?
A: 0
